The record followed here is patent publication US20230093861A1, “RAPAMYCIN ANALOGS AS MTOR INHIBITORS” (Revolution Medicines, Inc., priority 2017, published 2023).

One test relates to P-Akt (S473). The test can be described thus: Cell based AlphaLISA assay, inhibition of P-Akt (S473) (mTORC2 substrate phosphorylation) in MDA-MB-468 cells. Conditions: Homo sapiens, MDA-MB-468, 4 h, AlphaLISA, two to four hours at 37° C., read-out: pIC50 for Inhibition of mTORC1 and mTORC2 Substrate Phosphorylation, p-AKT 1/2/3 -(S473) (converted). Here is the method: (§1) Cell Based AlphaLISA Assays for Determining IC50 for Inhibition of P-Akt (S473), P-4E-BP1 (T37/46), and P-P70S6K (T389) in MDA-MB-468 Cells
(§2) mTOR Kinase Cellular Assay
(§3) To measure functional activity of mTORC1 and mTORC2 in cells the phosphorylation of 4EBP1 (Thr37/46) and P70S6K (Thr389), and AKT1/2/3 (Ser473) was monitored using AlphaLisa SureFire Ultra Kits (Perkin Elmer). […] Incubations were terminated by removal of the assay buffer and addition of lysis buffer provided with the assay kit. Samples were processed according to the manufacturer's instructions. The Alpha signal from the respective phosphoproteins was measured in duplicate using a microplate reader (Envision, Perkin-Elmer or Spectramax M5, Molecular Devices). Inhibitor concentration response curves were analyzed using normalized IC50 regression curve fitting with control based normalization.

The subject of another test is P-4E-BP1 (T37/46). The test can be described thus: Cell based AlphaLISA assay, inhibition of P-4E-BP1 (T37/46) (mTORC1 substrate phosphorylation) in MDA-MB-468 cells. The following applies: Homo sapiens, MDA-MB-468, 4 h, AlphaLISA, two to four hours at 37° C., read-out: pIC50 for Inhibition of mTORC1 and mTORC2 Substrate Phosphorylation, P-4E-BP1-(T37/46) (converted). Here is the method: as §1, §2, §3

A further test deals with P-P70S6K (T389). The test can be described thus: Cell based AlphaLISA assay, inhibition of P-P70S6K (T389) (mTORC1 substrate phosphorylation) in MDA-MB-468 cells. Conditions: Homo sapiens, 4 h, AlphaLISA, two to four hours at 37° C., read-out: pIC50 for Inhibition of mTORC1 and mTORC2 Substrate Phosphorylation, P-P70S6K-(T389) (converted). Here is the method: as §1, §2, §3

SMILES strings stand for the structures.

For `COc1ccc(-c2ccc3ncc4c(c3c2)n(-c2ccc(N3CCN(C(=O)CCOCCOCCOCCOCCOCCOCCOCCOCCn5cc(CCCCO[C@@H]6CC[C@@H](C[C@@H](C)[C@@H]7CC(=O)[C@H](C)/C=C(\C)[C@@H](O)[C@@H](OC)C(=O)[C@H](C)C[C@H](C)/C=C/C=C/C=C(\C)[C@@H](OC)C[C@@H]8CC[C@@H](C)[C@@](O)(O8)C(=O)C(=O)N8CCCC[C@H]8C(=O)O7)C[C@H]6OC)nn5)CC3)c(C(F)(F)F)c2)c(=O)n4C)cn1` [Example 11], the values for the IC50 in the test with P-Akt (S473), with P-4E-BP1 (T37/46) and in the test on P-P70S6K (T389) were < 3.16 nM, < 3.16 nM and < 1 nM, respectively.
As to `CO[C@H]1C[C@@H]2CC[C@@H](C)[C@@](O)(O2)C(=O)C(=O)N2CCCC[C@H]2C(=O)O[C@H]([C@H](C)C[C@@H]2CC[C@@H](O)[C@H](OC)C2)C[C@@H](OC)[C@H](C)/C=C(\C)[C@@H](O)[C@@H](OC)C(=NOCc2cn(CCOCCOCCOCCOCCOCCC(=O)NCCCCn3nc(-c4ccc5oc(N)nc5c4)c4c(N)ncnc43)nn2)[C@H](C)C[C@H](C)/C=C/C=C/C=C/1C` [Example 12], the IC50 in the test with P-Akt (S473), with P-4E-BP1 (T37/46) and in the test with P-P70S6K (T389) was > 1000 nM throughout.
`CO[C@H]1C[C@@H]2CC[C@@H](C)[C@@](O)(O2)C(=O)C(=O)N2CCCC[C@H]2C(=O)O[C@H]([C@H](C)C[C@@H]2CC[C@@H](O)[C@H](OC)C2)C[C@@H](OC)[C@H](C)/C=C(\C)[C@@H](O)[C@@H](OC)C(=NOCc2cn(CCOCCOCCOCCOCCOCCOCCC(=O)NCCCCn3nc(-c4ccc5oc(N)nc5c4)c4c(N)ncnc43)nn2)[C@H](C)C[C@H](C)/C=C/C=C/C=C/1C` [Example 13]: the IC50 in the test on P-Akt (S473) was 31.6 to 1000 nM; in the test on P-4E-BP1 (T37/46), 3.16 to 31.6 nM; in the test with P-P70S6K (T389) it was 1 to 10 nM.
With `CO[C@H]1C[C@@H]2CC[C@@H](C)[C@@](O)(O2)C(=O)C(=O)N2CCCC[C@H]2C(=O)O[C@H]([C@H](C)C[C@@H]2CC[C@@H](O)[C@H](OC)C2)C[C@@H](OC)[C@H](C)/C=C(\C)[C@@H](O)[C@@H](OC)/C(=N/OCc2cn(CCOCCOCCOCCOCCOCCOCCC(=O)NCCCCn3nc(-c4ccc5oc(N)nc5c4)c4c(N)ncnc43)nn2)[C@H](C)C[C@H](C)/C=C/C=C/C=C/1C` [Example 14], the results for the IC50 in the test on P-Akt (S473), in the test on P-4E-BP1 (T37/46) and with P-P70S6K (T389) were 31.6 to 1000 nM, 3.16 to 31.6 nM and 1 to 10 nM, respectively.
For the compound `CO[C@H]1C[C@@H]2CC[C@@H](C)[C@@](O)(O2)C(=O)C(=O)N2CCCC[C@H]2C(=O)O[C@H]([C@H](C)C[C@@H]2CC[C@@H](O)[C@H](OC)C2)C[C@@H](OC)[C@H](C)/C=C(\C)[C@@H](O)[C@@H](OC)/C(=N\OCc2cn(CCOCCOCCOCCOCCOCCOCCC(=O)NCCCCn3nc(-c4ccc5oc(N)nc5c4)c4c(N)ncnc43)nn2)[C@H](C)C[C@H](C)/C=C/C=C/C=C/1C` [Example 15], the results for the IC50 with P-Akt (S473), in the test with P-4E-BP1 (T37/46) and in the test with P-P70S6K (T389) were 31.6 to 1000 nM, 3.16 to 31.6 nM and 1 to 10 nM, respectively.
Take `CO[C@H]1C[C@@H]2CC[C@@H](C)[C@@](O)(O2)C(=O)C(=O)N2CCCC[C@H]2C(=O)O[C@H]([C@H](C)C[C@@H]2CC[C@@H](O)[C@H](OC)C2)C[C@@H](OC)[C@H](C)/C=C(\C)[C@@H](O)[C@@H](OC)C(=NOCc2cn(CCOCCOCCOCCOCCC(=O)NCCCCn3nc(-c4ccc5oc(N)nc5c4)c4c(N)ncnc43)nn2)[C@H](C)C[C@H](C)/C=C/C=C/C=C/1C` [Example 16]: the IC50 with P-Akt (S473), in the test with P-4E-BP1 (T37/46) and in the test on P-P70S6K (T389) was > 1000 nM in each case.
Turning to `CO[C@H]1C[C@@H]2CC[C@@H](C)[C@@](O)(O2)C(=O)C(=O)N2CCCC[C@H]2C(=O)O[C@H]([C@H](C)C[C@@H]2CC[C@@H](O)[C@H](OC)C2)C[C@@H](OC)[C@H](C)/C=C(\C)[C@@H](O)[C@@H](OC)C(=NOCc2cn(CCOCCOCCOCCOCCOCCOCCOCCOCCC(=O)NCCCCn3nc(-c4ccc5oc(N)nc5c4)c4c(N)ncnc43)nn2)[C@H](C)C[C@H](C)/C=C/C=C/C=C/1C` [Example 17], the IC50 with P-Akt (S473) was 31.6 to 1000 nM; with P-4E-BP1 (T37/46), 3.16 to 31.6 nM; in the test with P-P70S6K (T389) it was 1 to 10 nM.
Turning to `CO[C@@H]1C[C@H](C[C@@H](C)[C@@H]2CC(=O)[C@H](C)/C=C(\C)[C@@H](O)[C@@H](OC)C(=O)[C@H](C)C[C@H](C)/C=C/C=C/C=C(\C)[C@@H](c3ccco3)C[C@@H]3CC[C@@H](C)[C@@](O)(O3)C(=O)C(=O)N3CCCC[C@H]3C(=O)O2)CC[C@H]1OCCCCc1cn(CCOCCOCCOCCOCCOCCOCCOCCOCCC(=O)NCCCCn2nc(-c3ccc4oc(N)nc4c3)c3c(N)ncnc32)nn1` [Example 18], the IC50 was < 3.16 nM with P-Akt (S473), < 3.16 nM in the test with P-4E-BP1 (T37/46) and < 1 nM in the test on P-P70S6K (T389).
On to `CO[C@H]1C[C@@H]2CC[C@@H](C)[C@@](O)(O2)C(=O)C(=O)N2CCCC[C@H]2C(=O)O[C@H]([C@H](C)C[C@@H]2CC[C@@H](OCc3cccc(-c4cnc(N5CCN(Cc6cn(CCOCCOCCOCCOCCOCCC(=O)NCCCCn7nc(-c8ccc9oc(N)nc9c8)c8c(N)ncnc87)nn6)CC5)nc4)c3)[C@H](OC)C2)CC(=O)[C@H](C)/C=C(\C)[C@@H](O)[C@@H](OC)C(=O)[C@H](C)C[C@H](C)/C=C/C=C/C=C/1C` [Example 20], for which the values for the IC50 with P-Akt (S473), with P-4E-BP1 (T37/46) and with P-P70S6K (T389) were 3.16 to 31.6 nM, < 3.16 nM and < 1 nM, respectively.
Turning to `CO[C@H]1C[C@@H]2CC[C@@H](C)[C@@](O)(O2)C(=O)C(=O)N2CCCC[C@H]2C(=O)O[C@H]([C@H](C)C[C@@H]2CC[C@@H](OCc3cccc(-c4cnc(N5CCN(Cc6cn(CCOCCOCCOCCOCCC(=O)NCCCCn7nc(-c8ccc9oc(N)nc9c8)c8c(N)ncnc87)nn6)CC5)nc4)c3)[C@H](OC)C2)CC(=O)[C@H](C)/C=C(\C)[C@@H](O)[C@@H](OC)C(=O)[C@H](C)C[C@H](C)/C=C/C=C/C=C/1C` [Example 21], the IC50 is 3.16 to 31.6 nM with P-Akt (S473), < 3.16 nM in the test on P-4E-BP1 (T37/46) and < 1 nM in the test with P-P70S6K (T389).
Take `CO[C@H]1C[C@@H]2CC[C@@H](C)[C@@](O)(O2)C(=O)C(=O)N2CCCC[C@H]2C(=O)O[C@H]([C@H](C)C[C@@H]2CC[C@@H](OCc3cccc(-c4cnc(N5CCN(Cc6cn(CCOCCOCCOCCC(=O)NCCCCn7nc(-c8ccc9oc(N)nc9c8)c8c(N)ncnc87)nn6)CC5)nc4)c3)[C@H](OC)C2)CC(=O)[C@H](C)/C=C(\C)[C@@H](O)[C@@H](OC)C(=O)[C@H](C)C[C@H](C)/C=C/C=C/C=C/1C` [Example 22]: the IC50 is 3.16 to 31.6 nM with P-Akt (S473), < 3.16 nM with P-4E-BP1 (T37/46) and < 1 nM with P-P70S6K (T389).
As to `CO[C@H]1C[C@@H]2CC[C@@H](C)[C@@](O)(O2)C(=O)C(=O)N2CCCC[C@H]2C(=O)O[C@H]([C@H](C)C[C@@H]2CC[C@@H](OCc3cccc(-c4cnc(N5CCN(Cc6cn(CCOCCOCCOCCOCCOCCC(=O)NCCCCn7nc(-c8ccc9oc(N)nc9c8)c8c(N)ncnc87)nn6)C(CO)C5)nc4)c3)[C@H](OC)C2)CC(=O)[C@H](C)/C=C(\C)[C@@H](O)[C@@H](OC)C(=O)[C@H](C)C[C@H](C)/C=C/C=C/C=C/1C` (stereo partly drawn) [Example 23], the IC50 was < 3.16 nM in the test with P-Akt (S473), < 3.16 nM with P-4E-BP1 (T37/46) and < 1 nM in the test with P-P70S6K (T389).
On to `CO[C@H]1C[C@@H]2CC[C@@H](C)[C@@](O)(O2)C(=O)C(=O)N2CCCC[C@H]2C(=O)O[C@H]([C@H](C)C[C@@H]2CC[C@@H](OCc3cccc(-c4cnc(N5CCN(Cc6cn(CCOCCOCCOCCOCCC(=O)NCCCCn7nc(-c8ccc9oc(N)nc9c8)c8c(N)ncnc87)nn6)C(CO)C5)nc4)c3)[C@H](OC)C2)CC(=O)[C@H](C)/C=C(\C)[C@@H](O)[C@@H](OC)C(=O)[C@H](C)C[C@H](C)/C=C/C=C/C=C/1C` (stereo partly drawn) [Example 24], for which the IC50 in the test with P-Akt (S473) is 3.16 to 31.6 nM; in the test on P-4E-BP1 (T37/46) it was < 3.16 nM; in the test on P-P70S6K (T389) it was < 1 nM.
The matching figures for `CO[C@H]1C[C@@H]2CC[C@@H](C)[C@@](O)(O2)C(=O)C(=O)N2CCCC[C@H]2C(=O)O[C@H]([C@H](C)C[C@@H]2CC[C@@H](OCc3cccc(-c4cnc(N5CCN(Cc6cn(CCOCCOCCOCCC(=O)NCCCCn7nc(-c8ccc9oc(N)nc9c8)c8c(N)ncnc87)nn6)C(CO)C5)nc4)c3)[C@H](OC)C2)CC(=O)[C@H](C)/C=C(\C)[C@@H](O)[C@@H](OC)C(=O)[C@H](C)C[C@H](C)/C=C/C=C/C=C/1C` (stereo partly drawn) [Example 25]: 3.16 to 31.6 nM, < 3.16 nM and < 1 nM.
For `CO[C@H]1C[C@@H]2CC[C@@H](C)[C@@](O)(O2)C(=O)C(=O)N2CCCC[C@H]2C(=O)O[C@H]([C@H](C)C[C@@H]2CC[C@@H](OCc3cccc(-c4cnc(N5CCN(S(=O)(=O)CCc6cn(CCOCCOCCOCCOCCC(=O)NCCCCn7nc(-c8ccc9oc(N)nc9c8)c8c(N)ncnc87)nn6)CC5)nc4)c3)[C@H](OC)C2)CC(=O)[C@H](C)/C=C(\C)[C@@H](O)[C@@H](OC)C(=O)[C@H](C)C[C@H](C)/C=C/C=C/C=C/1C` [Example 26], the figures for the IC50 with P-Akt (S473), in the test on P-4E-BP1 (T37/46) and in the test on P-P70S6K (T389) were 3.16 to 31.6 nM, < 3.16 nM and < 1 nM, respectively.
